# Calls of active or inactive are those of the source. No cut-off for these calls is given here.
# What was measured:
# Aspergillus fumigatus = assay: Antifungal activity against Aspergillus fumigatus CGMCC 3.7795 assessed as inhibition of visible growth; format: functional
# [1] = Metabolic stability in human liver microsomes assessed as half life by LC-MS/MS analysis; format: ADME, Microsome; details: liver microsomes
# Nakaseomyces glabratus [2] = assay: Antifungal activity against Clinical isolate Candida glabrata assessed as inhibition of visible growth; format: functional
# Candida parapsilosis = assay: Antifungal activity against Candida parapsilosis GIM 2.190 assessed as inhibition of visible growth; format: functional; details: Lodderomyces parapsilosis
# Pichia kudriavzevii [3] = assay: Antifungal activity against Candida krusei AS 2.1045 assessed as inhibition of visible growth; format: functional
# [4] = Metabolic stability in human liver microsomes assessed as compound remaining measured up to 60 mins by LC-MS/MS analysis; format: ADME, Microsome; details: liver microsomes, read-out: Activity
# Candida albicans [5] = assay: Antifungal activity against Candida albicans CPCC 400616 assessed as inhibition of visible growth; format: functional
# Candida albicans [6] = assay: Antifungal activity against Candida albicans SC 5314 assessed as inhibition of visible growth; format: functional
# [7] = Cytotoxicity against human HUVEC cells measured after 72 hrs by MTT assay; format: toxicity, cell-based
# Cryptococcus neoformans [8] = assay: Antifungal activity against Cryptococcus neoformans CGMCC 2.3161 assessed as inhibition of visible growth; format: functional
# Candida tropicalis = assay: Antifungal activity against Candida tropicalis CGMCC 2.3739 assessed as inhibition of visible growth; format: functional
# Mus musculus = assay: In vivo antifungal activity against Candida albicans SC5314 infected in ICR mouse model assessed as mouse survival at 1 mg/kg, oral gavage measured for 21 days post infection; format: functional, organism-based; details: time 21.0 day, tested as the 2H-labelled form
# Cell membrane [9] = assay: Induction of loss of cell membrane integrity in Candida albicans SC5314 assessed as irregular cell morphology at 16 microg/ml measured after 48 hrs incubation by transmission electron microscopy; format: subcellular; details: dose 16.0 µg/ml
# Candida albicans [10] = assay: In vivo anti-resistant activity against fluconazole-resistant Candida albicans strain 17# infected in cyclophosphamide-immunosuppressed ICR mouse model assessed as reduction in fungal burden in kidney at 5 mg/kg, oral gavage for 5 days post infection; format: functional, organism-based; details: time 5.0 day, tested as the 2H-labelled form
# Candida albicans [11] = assay: In vivo anti-resistant activity against fluconazole-resistant Candida albicans strain 17# infected in cyclophosphamide-immunosuppressed ICR mouse model assessed as reduction in fungal burden in kidney at 10 mg/kg, oral gavage for 5 days post infection; format: functional, organism-based; details: time 5.0 day, tested as the 2H-labelled form
# Candida albicans [12] = assay: In vivo antifungal activity against Candida albicans SC5314 infected in cyclophosphamide-immunosuppressed ICR mouse model assessed as reduction in fungal burden in kidney at 1 mg/kg, oral gavage for 5 days post infection; format: functional, organism-based; details: time 5.0 day, tested as the 2H-labelled form
# Candida albicans [13] = assay: Antifungal activity against Candida albicans CPCC 400616 assessed as suppression of hyphal formation (inhibition of yeast to hypha transition) at 2 microg/ml measured after 4 hrs by inverted microscopy; format: functional, organism-based; details: dose 2.0 µg/ml, tested as the 2H-labelled form
# Cell membrane [14] = assay: Induction of loss of cell membrane integrity in Candida albicans SC5314 assessed as leakage of intracellular components into the extracellular environment at 16 microg/ml measured after 48 hrs incubation by transmission electron microscopy; format: subcellular; details: dose 16.0 µg/ml
# Candida albicans [15] = assay: In vivo antifungal activity against Candida albicans SC5314 infected in cyclophosphamide-immunosuppressed ICR mouse model assessed as reduction in fungal burden in kidney at 5 mg/kg, oral gavage for 5 days post infection; format: functional, organism-based; details: time 5.0 day, tested as the 2H-labelled form
# Nakaseomyces glabratus [16] = assay: Inhibition of biofilm formation in clinical isolate Candida glabrata assessed as inhibition of metabolic activity of biofilm measured after 24 hrs by XTT assay; format: functional
# Candida albicans [17] = assay: In vivo anti-resistant activity against fluconazole-resistant Candida albicans strain 17# infected in cyclophosphamide-immunosuppressed ICR mouse model assessed as reduction in fungal burden in kidney at 1 to 5 mg/kg, oral gavage for 5 days post infection; format: functional, organism-based; details: dose 1-5 mg/kg, time 5.0 day
# Cryptococcus neoformans [18] = assay: Antifungal activity against Cryptococcus neoformans CGMCC 2.3161 assessed as reduction in other sterol at 8 ug/ml measured after 18 hrs incubation by gas chromatography-mass spectrometry (GCMS) analysis (reference value: 2.20%); format: functional; set-up: scale not given: the % may be the effect or the level left; details: dose 8 µg/ml
# Candida albicans [19] = assay: Antifungal activity against Candida albicans SC5314 assessed as reduction in Obtusifoliol at 4 ug/ml measured after 18 hrs incubation by gas chromatography-mass spectrometry (GCMS) analysis; format: functional; set-up: scale not given: the % may be the effect or the level left; details: dose 4 µg/ml
# Candida albicans [20] = assay: Antifungal activity against Candida albicans SC5314 assessed as reduction in Lanosterol at 4 ug/ml measured after 18 hrs incubation by gas chromatography-mass spectrometry (GCMS) analysis; format: functional; set-up: scale not given: the % may be the effect or the level left; details: dose 4 µg/ml
# Cryptococcus neoformans [21] = assay: Fungicidal activity against Cryptococcus neoformans CGMCC 2.3161 assessed as concentration of colonies (< 5) measured after 48 hrs incubation; format: functional
# Cryptococcus neoformans [22] = assay: Inhibition of biofilm formation in Cryptococcus neoformans CGMCC 2.3161 assessed as inhibition of metabolic activity of biofilm measured after 24 hrs by XTT assay; format: functional
# [23] = Cytotoxicity against human SH-SY5Y cells measured after 72 hrs by MTT assay; format: toxicity, cell-based
# Candida albicans [24] = assay: Antifungal activity against Candida albicans SC5314 assessed as reduction in 14alpha-methylsterols at 4 ug/ml measured after 18 hrs incubation by gas chromatography-mass spectrometry (GCMS) analysis (reference value: 0.69%); format: functional; set-up: scale not given: the % may be the effect or the level left; details: dose 4 µg/ml
# Cryptococcus neoformans [25] = assay: Antifungal activity against Cryptococcus neoformans CGMCC 2.3161 assessed as reduction in ergosterol at 8 ug/ml measured after 18 hrs incubation by gas chromatography-mass spectrometry (GCMS) analysis (reference value: 94.48%); format: functional; set-up: scale not given: the % may be the effect or the level left; details: dose 8 µg/ml
# Candida albicans [26] = assay: Antifungal activity against Candida albicans SC5314 assessed as reduction in other sterol at 4 ug/ml measured after 18 hrs incubation by gas chromatography-mass spectrometry (GCMS) analysis (reference value: 2.59%); format: functional; set-up: scale not given: the % may be the effect or the level left; details: dose 4 µg/ml
# Cryptococcus neoformans [27] = assay: Antifungal activity against Cryptococcus neoformans CGMCC 2.3161 assessed as reduction in Eburicol at 8 ug/ml measured after 18 hrs incubation by gas chromatography-mass spectrometry (GCMS) analysis; format: functional; set-up: scale not given: the % may be the effect or the level left; details: dose 8 µg/ml
# Cryptococcus neoformans [28] = assay: Antifungal activity against Cryptococcus neoformans CGMCC 2.3161 assessed as reduction in Obtusifoliol at 8 ug/ml measured after 18 hrs incubation by gas chromatography-mass spectrometry (GCMS) analysis; format: functional; set-up: scale not given: the % may be the effect or the level left; details: dose 8 µg/ml
# Nakaseomyces glabratus [29] = assay: Fungicidal activity against Clinical isolate Candida glabrata assessed as concentration of colonies (< 5) measured after 48 hrs incubation; format: functional
# Cell membrane [30] = assay: Antifungal activity against Candida albicans SC5314 assessed as reduction in Eburicol at 4 ug/ml measured after 18 hrs incubation by gas chromatography-mass spectrometry (GCMS) analysis; format: subcellular; set-up: scale not given: the % may be the effect or the level left; details: dose 4.0 µg/ml
# Candida albicans [31] = assay: Antifungal activity against Candida albicans SC5314 assessed as reduction in ergosterol at 4 ug/ml measured after 18 hrs incubation by gas chromatography-mass spectrometry (GCMS) analysis (reference value: 96.72%); format: functional; set-up: scale not given: the % may be the effect or the level left; details: dose 4 µg/ml
# Pichia kudriavzevii [32] = assay: Fungicidal activity against Candida krusei AS 2.1045 assessed as concentration of colonies (< 5) measured after 48 hrs incubation; format: functional
smiles,measurement,setting,value
CN(Cc1ccc(N2CCN(Cc3ccc(F)cc3Br)CC2)cc1)CC(O)(Cn1cncn1)c1ccc(F)cc1F (stereo unspecified),MIC80,Aspergillus fumigatus,0.05 µg/mL
same,half-life,[1],2.89 min
same,MIC80,Nakaseomyces glabratus [2],0.05 µg/mL
same,MIC80,Candida parapsilosis,0.006 µg/mL
same,MIC80,Pichia kudriavzevii [3],0.05 µg/mL
same,remaining at 1 h,[4],0.936%
same,MIC80,Candida albicans [5],0.006 µg/mL
same,MIC80,Candida albicans [6],0.006 µg/mL
same,IC50 at 72 h,[7],21 µM
same,MIC80,Cryptococcus neoformans [8],0.012 µg/mL
same,MIC80,Candida tropicalis,0.006 µg/mL
C[C@@H](N(C)Cc1ccc(-c2ccc(OC(F)(F)F)cc2)cc1)[C@](O)(Cn1cncn1)c1ccc(F)cc1F,Activity,Mus musculus,inactive
same,Activity,Cell membrane [9]; tested as the 2H-labelled form,Active
same,Activity,Candida albicans [10],Active
same,Activity,Candida albicans [11],Active; Compound Showed Far Superior Effect Than Fluconazole
same,Activity,Candida albicans [12],Active; Low Dose Antifungal Activity Weaker Than Fluconazole (Positive Control)
same,inhibition,Candida albicans [13],Active
same,Activity,Cell membrane [14],Active
same,Activity,Candida albicans [15],Active
OC(Cn1cncn1)(Cn1cncn1)c1ccc(F)cc1F [FLUCONAZOLE],MIC50,Nakaseomyces glabratus [16],0.12 µg/mL
same,Activity,Cell membrane [9],Active
same,Activity,Candida albicans [17],inactive
same,MIC80,Aspergillus fumigatus,> 64 µg/mL
same,MIC80,Nakaseomyces glabratus [2],32 µg/mL
same,MIC80,Candida parapsilosis,1 µg/mL
same,Activity,Cryptococcus neoformans [18],3.51%
same,Activity,Candida albicans [19],18.55%
same,MIC80,Pichia kudriavzevii [3],8 µg/mL
same,Activity,Candida albicans [20],18.35%
same,MFC,Cryptococcus neoformans [21],> 128 µg/mL
same,MIC50,Cryptococcus neoformans [22],32 µg/mL
same,MIC80,Candida albicans [5],0.5 µg/mL
same,IC50 at 72 h,[23],> 100 µM
same,Activity,Candida albicans [24],8.46%
same,Activity,Cryptococcus neoformans [25],86.73%
same,MIC80,Candida albicans [6],0.25 µg/mL
same,Activity,Candida albicans [26],13.1%
same,Activity,Cryptococcus neoformans [27],5.92%
same,IC50 at 72 h,[7],> 40 µM
same,Activity,Cryptococcus neoformans [28],3.85%
same,MFC,Nakaseomyces glabratus [29],> 128 µg/mL
same,MIC80,Cryptococcus neoformans [8],16 µg/mL
same,Activity,Cell membrane [30],49.5%
same,Activity,Candida albicans [31],3.81%
same,MIC80,Candida tropicalis,0.25 µg/mL
same,MFC,Pichia kudriavzevii [32],> 128 µg/mL
